Test results taken from patent US20120115845A1, “THERAPEUTIC AGENTS” (priority 2007, published 2012).

Key:
[1] = target: T1, human GHS receptor (Homo sapiens, UniProt Q92847); assay: h bind IC50 (binding assay, Table 1); conditions: human receptor; Table 1
[2] = target: T1, human GHS receptor; assay: Ghrelin IP1 agonist assay (IP1 HTRF); format: cell-based; set-up: expressed in transfected cells; host or cells: HEK293s; conditions: for Emax: 2 h, agonist effect as % maximal effect of GHRP-6 (5 μM), read-out: h IP1 ag %; for EC50: HEK293s cells stably expressing human GHS receptor, 2 hours at 37° C., read-out: h IP1 ag EC50
Method in brief: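 Cells: HEK293s stably expressing human GHS receptor, in stimulation buffer containing 0.02% fatty acid free BSA.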

T1 sequence (Q92847 whole entry): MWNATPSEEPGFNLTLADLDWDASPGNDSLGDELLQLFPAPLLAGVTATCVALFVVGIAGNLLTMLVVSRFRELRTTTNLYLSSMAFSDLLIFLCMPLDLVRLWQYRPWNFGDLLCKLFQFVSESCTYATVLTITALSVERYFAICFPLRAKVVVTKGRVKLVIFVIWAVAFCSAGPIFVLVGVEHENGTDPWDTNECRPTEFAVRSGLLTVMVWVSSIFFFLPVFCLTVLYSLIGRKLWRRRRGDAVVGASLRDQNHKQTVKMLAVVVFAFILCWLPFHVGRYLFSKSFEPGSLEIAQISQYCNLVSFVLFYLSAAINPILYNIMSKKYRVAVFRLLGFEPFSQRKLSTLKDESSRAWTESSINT

SMILES | IC50 [1] | Emax [2] | EC50 [2]
CC(C)NCC(C)(C)S(=O)(=O)c1ccc2nc(NC(=O)NC(=O)c3cc(N4CCOCC4)ccc3Cl)sc2c1 [Example 246, 2-chloro-N-(6-(1-(isopropylamino)-2-methylpropan-2-ylsulfonyl)benzo[d]thiazol-2-ylcarbamoyl)-5-morpholino-benzamide] | 2.08 nM | 0% | ≥ 20000 nM
CN(C)c1cccc(-c2ccc(Cl)c(C(=O)NC(=O)Nc3nc4ccc(S(C)(=O)=O)cc4s3)c2)n1 [Example 251, 2-chloro-5-(6-(dirnethylamino)pyridin-2-yl)-N-(6-(methylsulfonyl)benzo[d]thiazol-2-ylcarbamoyl) benzamide] | 34.4 nM | 0% | ≥ 20000 nM
CN1CCC(S(=O)(=O)c2ccc3nc(NC(=O)NC(=O)c4cc(-n5cccn5)c(F)cc4Cl)sc3c2)CC1 [Example 254, 2-chloro-4-fluoro-N-(6-(1-methylpiperidin-4-ylsulfonyl)benzo [d]thiazol-2-ylcarbamoyl)-5-(1H-pyrazol-1-yl)benzamide] | 5.69 nM | 0% | ≥ 20000 nM
COc1cc(Cl)c(C(=O)NC(=O)Nc2nc3ccc(S(=O)(=O)C4CCN(C)CC4)cc3s2)cc1N1CCOCC1 [Example 255, 2-chloro-4-methoxy-N-(6-(1-methylpiperidin-4-ylsulfonyl)benzo [d]thiazol-2-ylcarbamoyl)-5-morpholino-benzamide] | 7.91 nM | 80.9% | ≥ 20000 nM
CN1CC(Oc2ccc(Cl)c(C(=O)NC(=O)Nc3nc4ccc(S(C)(=O)=O)cc4s3)c2)C1 [Example 257, 2-chloro-5-(1-methylazetidin-3-yloxy)-N-(6-(methylsulfonyl)benzo[d]thiazol-2-ylcarbamoyl) benzamide] | 846 nM | 13.1% | ≥ 20000 nM
CN1CCC(S(=O)(=O)c2ccc3nc(NC(=O)NC(=O)c4cc(N5CCOCC5)c(Cl)cc4Cl)sc3c2)CC1 [Example 258, 2,4-dichloro-N-(6-(1-methylpiperidin-4-ylsulfonyl)benzo[d]thiazol-2-ylcarbamoyl)-5-morpholino-benzamide] | 10.5 nM | 2.45% | 3340 nM
Cc1cc(Cl)c(C(=O)NC(=O)Nc2nc3ccc(S(=O)(=O)C4CCN(C)CC4)cc3s2)cc1-n1cccn1 [Example 260, 2-chloro-4-methyl-N-(6-(1-methylpiperidin-4-ylsulfonyl)benzo [d]thiazol-2-ylcarbamoyl)-5-(1H-pyrazol-1-yl)benzamide] | 5.78 nM | 1.52% | 9230 nM
COc1cc(Cl)c(C(=O)NC(=O)Nc2nc3ccc(S(=O)(=O)C4CCN(C(=O)OC(C)(C)C)CC4)cc3s2)cc1-n1cccn1 [Example 262, tert-butyl4-(2-(3-(2-chloro-4-methoxy-5-(1H-pyrazol-1-yl)benzoyl)ureido)benzo[d]thiazol-6-ylsulfonyl) piperidine-1-carboxylate] | 34.3 nM | 0% | ≥ 20000 nM
CN(C)Cc1ccc(Cl)c(C(=O)NC(=O)Nc2nc3ccc(S(C)(=O)=O)cc3s2)c1 [Example 266, 2-chloro-5-((dimethylamino)methyl)-N-(6-(methylsulfonyl)benzo[d]thiazol-2-ylcarbamoyl) benzamide] | 4940 nM | 6% | ≥ 20000 nM

The remaining lines, values ahead:

IC50 [1] | Emax [2] | EC50 [2] | SMILES
452 nM | 0% | ≥ 20000 nM | CN(C)c1cccnc1-c1ccc(Cl)c(C(=O)NC(=O)Nc2nc3ccc(S(C)(=O)=O)cc3s2)c1 [Example 247]
59 nM | 3.07% | 347 nM | CC(C)(C)OC(=O)N1CCC(Oc2ccc(Cl)c(C(=O)NC(=O)Nc3nc4ccc(S(C)(=O)=O)cc4s3)c2)C1 (centres unmarked) [Example 248, tert-butyl 3-(4-chloro-3-(6-(methylsulfonyl)benzo[d]thiazol-2-ylcarbamoyl-carbamoyl)phenoxy) pyrrolidine-1-carboxylate]
8080 nM | 3.13% | 4900 nM | CS(=O)(=O)c1ccc2nc(NC(=O)NC(=O)c3cc(OC4CCNC4)ccc3Cl)sc2c1 (centres unmarked) [Example 249, 2-chloro-N-(6-(methylsulfonyl)benzo[d]thiazol-2-ylcarbamoyl) 5-(pyrrolidin-3-yloxy)benzamide]
3780 nM | 6.82% | 5130 nM | CN1CCC(Oc2ccc(Cl)c(C(=O)NC(=O)Nc3nc4ccc(S(C)(=O)=O)cc4s3)c2)C1 (centres unmarked) [Example 250, 2-chloro-5-(1-methylpyrrolidin-3-yloxy)-N-(6-(methylsulfonyl)benzo[d]thiazol-2-ylcarbamoyl) benzamide]
18.7 nM | 1% | 27.7 nM | CC(C)(C)OC(=O)N1CC(Oc2ccc(Cl)c(C(=O)NC(=O)Nc3nc4ccc(S(C)(=O)=O)cc4s3)c2)C1 [Example 252, tert-buty 3-(4-chloro-3-(6-(methylsulfonyl)benzo[d]thiazol-2-ylcarbamoyl-carbamoyl)phenoxy)azetidine-1-carboxylate]
7600 nM | 5.84% | 4970 nM | CS(=O)(=O)c1ccc2nc(NC(=O)NC(=O)c3cc(OC4CNC4)ccc3Cl)sc2c1 [Example 253, 5-(azetidin-3-yloxy)-2-chloro-N-(6-(methylsulfonyl)benzo[d]thiazol-2-ylcarbamoyl) benzamide]
58.9 nM | 0% | ≥ 20000 nM | CCOc1cc(C(=O)NC(=O)Nc2nc3ccc(S(=O)(=O)C4CCN(C)CC4)cc3s2)c(Cl)cc1OC [Example 256, 2-chloro-5-ethoxy-4-methoxy-N-(6-(1-methylpiperidin-4-ylsulfonyl)benzo [d]thiazol-2-ylcarbamoyl) benzamide]
5.03 nM | 0.653% | ≥ 20000 nM | CN1CCC(S(=O)(=O)c2ccc3nc(NC(=O)NC(=O)c4cc(-n5cccn5)c(Cl)cc4Cl)sc3c2)CC1 [Example 259, 2,4-dichloro-N-(6-(1-methylpiperidin-4-ylsulfonyl)benzo [d]thiazol-2-ylcarbamoyl)-5-(1H-pyrazol-1-yl)benzamide]
0.93 nM | 0% | ≥ 20000 nM | CCOc1cc(Cl)c(C(=O)NC(=O)Nc2nc3ccc(S(=O)(=O)C4CCN(C)CC4)cc3s2)cc1-n1cccn1 [Example 261, 2-chloro-4-ethoxy-N-(6-(1-methylpiperidin-4-ylsulfonyl)benzo [d]thiazol-2-ylcarbamoyl)-5-(1H-pyrazol-1-yl)benzamide]
4.43 nM | 0% | ≥ 20000 nM | COc1cc(Cl)c(C(=O)NC(=O)Nc2nc3ccc(S(=O)(=O)C4CCN(C)CC4)cc3s2)cc1-n1cccn1 [Example 264, 2-chloro-4-methoxy-N-(6-(1-methylpiperidin-4-ylsulfonyl)benzo [d]thiazol-2-ylcarbamoyl) 5-(1H-pyrazol-1-yl)benzamide]
29.6 nM | 0% | – | COc1cc(Cl)c(C(=O)NC(=O)Nc2nc3ccc(S(=O)(=O)C4CCN(C)CC4)cc3s2)cc1-n1nccc1C [Example 265, 2-chloro-4-methoxy-5-(5-methyl-1H-pyrazol-1-yl)-N-(6-(1-methylpiperidin-4-ylsulfonyl)benzo [d]thiazol-2-ylcarbamoyl) benzamide]
965 nM | 11.3% | 7320 nM | CN(C)C1CCCN(c2ccc(Cl)c(C(=O)NC(=O)Nc3nc4ccc(S(C)(=O)=O)cc4s3)c2)C1 (centres unmarked) [Example 268, 2-Chloro-5-(3-dimethylamino-1-piperidyl)-N-[(6-methylsulfonyl-1,3-benzothiazol-2-yl)carbamoyl]benzamide]
